The record followed here is patent publication US20240391948A1, “NOVEL COMPOUND THAT INHIBITS TNF-ALPHA GENERATION AND INFLAMMASOME ACTIVITY AND PREPARATION METHOD THEREFOR” (SHAPERON INC., priority 2021, published 2024).

By pIC50 is commonly meant −log10 of the IC50, conventionally taken in molar units. The term inhibition denotes the drop in the measured response relative to a control, in per cent.

pIC50: −log10 of the molar value.

What all share (type): cell-based
In experiment [1] the test system is U937 cells (human monocytic cell line). As to the kind of experiment: BzATP-induced IL-1β secretion inhibition in PMA-differentiated U937 cells. The following applies: U-937, U937 cells differentiated with PMA, read-out: IL-1β production inhibition grade (IC50). The essentials: (§1)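 U937 cells were PMA-differentiated into macrophages and treated with compound before inflammatory stimulus. TNF-α secretion was induced with Pam2CSK4 and IL-1β secretion with BzATP. IC50 (μM) values are graded A-D, with separate cut-offs per cytokine.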

Experiment [2] concerns J774A.1 (Mouse BALB/c monocyte macrophage cell line) cells. As to the kind of experiment: LPS-induced TNF-α secretion inhibition in J774A.1 cells. The following applies: J774.A1, 1 μM compound, graded compared to taurodeoxycholic acid (positive control), read-out: TNF-α production inhibition grade. The essentials: (§2)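 Mouse J774A.1 macrophages treated with 1 μM compound; TNF-α secretion measured after LPS stimulation and IL-1β secretion after LPS+ATP stimulation. Suppression graded against taurodeoxycholic acid: A over 100%, B 50–100%, C 20–50%, D under 20%.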

Experiment [3] relates to U937 cells (human monocytic cell line). As to the kind of experiment: Pam2CSK4-induced TNF-α secretion inhibition in PMA-differentiated U937 cells. The conditions noted are these: U-937, U937 cells differentiated with PMA, read-out: TNF-α production inhibition grade (IC50). The essentials:
as §1

For experiment [4], the system named is J774A.1 (Mouse BALB/c monocyte macrophage cell line) cells. Nature of the experiment: LPS+ATP-induced IL-1β secretion inhibition in J774A.1 cells. The following applies: J774.A1, 1 μM compound, graded compared to taurodeoxycholic acid (positive control), read-out: IL-1β production inhibition grade. The essentials:
as §2

On to `CC[C@H]1[C@@H](O)[C@@H]2[C@H](CC[C@]3(C)[C@@H]([C@H](C)CCC(=O)N[C@H](C)CS(=O)(=O)O)CC[C@@H]23)[C@@]2(C)CC[C@@H](O)C[C@@H]12` [NC40029], for which the pIC50 in experiment [1] was at most 6.70; in experiment [3], 5.70 to 6.00. In addition, the inhibition at 1 µM in experiment [2] and in experiment [4] was under 20% each time.
Take `CC[C@H]1[C@@H](O)[C@@H]2[C@H](CC[C@]3(C)[C@@H]([C@H](C)CCC(=O)N[C@@H](Cc4ccccc4)CS(=O)(=O)O)CC[C@@H]23)[C@@]2(C)CC[C@@H](O)C[C@@H]12` [NC40014]: the pIC50 is over 7.30 in experiment [1] and 6.00 to 6.30 in experiment [3]. Besides, the inhibition at 1 µM in experiment [2] was under 20%; in experiment [4], over 100%.
Take `C[C@H](CCC(=O)N1CC(S(=O)(=O)O)C1)[C@H]1CC[C@H]2[C@@H]3[C@H](O)C[C@@H]4C[C@H](O)CC[C@]4(C)[C@H]3C[C@H](O)[C@]12C` [NC20012]: the pIC50 in experiment [1] was over 7.30; in experiment [3], 6.00 to 6.30. Besides, the inhibition at 1 µM is under 20% in experiment [2] and over 100% in experiment [4].
For `CC[C@H]1[C@@H](O)[C@@H]2[C@H](C[C@H](O)[C@]3(C)[C@@H]([C@H](C)CCC(=O)N4CC(S(=O)(=O)O)C4)CC[C@@H]23)[C@@]2(C)CC[C@@H](O)C[C@@H]12` [NC50012] the same measures were over 7.30, 5.70 to 6.00, under 20% and over 100%.
In the same order, the values of `C[C@H](CCC(=O)N(CCS(=O)(=O)O)c1ccccc1)[C@H]1CC[C@H]2[C@@H]3CC[C@@H]4C[C@H](O)CC[C@]4(C)[C@H]3C[C@H](O)[C@]12C` [NC10052] are 7.00 to 7.30, 5.70 to 6.00, 50 to 100% and 50 to 100%.
For `C[C@H](CCC(=O)N[C@H](Cc1ccccc1)CS(=O)(=O)O)[C@H]1CC[C@H]2[C@@H]3CC[C@@H]4CC(=O)CC[C@]4(C)[C@H]3CC[C@]12C` [NC30015] the same measures were at most 6.70, over 6.30, under 20% and under 20%.
In the case of `CC[C@H]1[C@@H](O)[C@@H]2[C@H](CC[C@]3(C)[C@@H]([C@H](C)CCC(=O)N[C@@H](C)CS(=O)(=O)O)CC[C@@H]23)[C@@]2(C)CC[C@@H](O)C[C@@H]12` [NC40028], the pIC50 in experiment [1] was 6.70 to 7.00; in experiment [3], 5.70 to 6.00. The inhibition at 1 µM in experiment [2] is under 20%; in experiment [4], 50 to 100%.
For `CC[C@H]1[C@@H](O)[C@@H]2[C@H](CC[C@]3(C)[C@@H]([C@H](C)CCC(=O)N4CCC[C@H]4CS(=O)(=O)O)CC[C@@H]23)[C@@]2(C)CC[C@@H](O)C[C@@H]12` [NC40021] the same measures were at most 6.70, 6.00 to 6.30, under 20% and 50 to 100%.
For `CC[C@H]1[C@@H](O)[C@@H]2[C@H](CC[C@]3(C)[C@@H]([C@H](C)CCC(=O)N(CCS(=O)(=O)O)C(C)C)CC[C@@H]23)[C@@]2(C)CC[C@@H](O)C[C@@H]12` [NC40007] the same measures were at most 6.70, 5.70 to 6.00, under 20% and 50 to 100%.
Consider `CC[C@H]1[C@@H](O)[C@@H]2[C@H](C[C@H](O)[C@]3(C)[C@@H]([C@H](C)CCC(=O)N[C@@H](CS(=O)(=O)O)c4ccccc4)CC[C@@H]23)[C@@]2(C)CC[C@@H](O)C[C@@H]12` [NC50019], for which the negative logarithm of the IC50 (pIC50) was at most 6.70 in experiment [1] and 5.70 to 6.00 in experiment [3]. The inhibition at 1 µM was under 20% in experiment [2] and 50 to 100% in experiment [4].
Regarding `C[C@H](CCC(=O)N[C@H](CS(=O)(=O)O)c1ccccc1)[C@H]1CC[C@H]2[C@@H]3[C@H](O)C[C@@H]4C[C@H](O)CC[C@]4(C)[C@H]3C[C@H](O)[C@]12C` [NC20018], the pIC50 in experiment [1] is at most 6.70; in experiment [3] it was 5.70 to 6.00. Further, the inhibition at 1 µM in experiment [2] and in experiment [4] was under 20% throughout.
As to `C[C@H](CCC(=O)NCCOS(=O)(=O)O)[C@H]1CC[C@H]2[C@@H]3CC[C@@H]4C[C@H](O)CC[C@]4(C)[C@H]3CC[C@]12C` [NC10013], the pIC50 in experiment [1] was 7.00 to 7.30; in experiment [3] it was 6.00 to 6.30. Moreover, the inhibition at 1 µM in experiment [2] was under 20%; in experiment [4], 50 to 100%.
Consider `C[C@H](CCC(=O)N[C@@H](CO)CS(=O)(=O)O)[C@H]1CC[C@H]2[C@@H]3CC[C@@H]4C[C@H](O)CC[C@]4(C)[C@H]3C[C@H](O)[C@]12C` [NC10040], for which the pIC50 is at most 6.70 in experiment [1] and 5.70 to 6.00 in experiment [3]. Besides, the inhibition at 1 µM in experiment [2] and in experiment [4] was under 20% each time.
With `C[C@H](CCC(=O)N[C@@H](CS(=O)(=O)O)c1ccccc1)[C@H]1CC[C@H]2[C@@H]3[C@H](O)C[C@@H]4C[C@H](O)CC[C@]4(C)[C@H]3C[C@H](O)[C@]12C` [NC20019], the pIC50 was 7.00 to 7.30 in experiment [1] and 5.70 to 6.00 in experiment [3]. Moreover, the inhibition at 1 µM in experiment [2] and in experiment [4] was under 20% throughout.
For `C[C@H](CCC(=O)NCCC(=O)O)[C@H]1CC[C@H]2[C@@H]3CC[C@@H]4CC(=O)CC[C@]4(C)[C@H]3CC[C@]12C` [NC30002], the figures for the pIC50 in experiment [1] and in experiment [3] were 6.70 to 7.00 and 5.70 to 6.00, respectively. Moreover, the inhibition at 1 µM in experiment [2] was under 20%; in experiment [4] it was 50 to 100%.
For the molecule `C[C@H](CCC(=O)N(C)CCS(=O)(=O)O)[C@H]1CC[C@H]2[C@@H]3CC[C@@H]4C[C@H](O)CC[C@]4(C)[C@H]3C[C@H](O)[C@]12C` [NC10006], the pIC50 in experiment [1] is at most 6.70; in experiment [3] it was 6.00 to 6.30. The figures for the inhibition at 1 µM in experiment [2] and in experiment [4] were under 20% and 50 to 100%, respectively.
With `C[C@H](CCC(=O)N1CC[C@H](S(=O)(=O)O)C1)[C@H]1CC[C@H]2[C@@H]3CC[C@@H]4C[C@H](O)CC[C@]4(C)[C@H]3C[C@H](O)[C@]12C` [NC10048], the pIC50 was 7.00 to 7.30 in experiment [1] and over 6.30 in experiment [3]. Moreover, the inhibition at 1 µM in experiment [2] was under 20%; in experiment [4] it was 50 to 100%.
In the same order, the values of `C[C@H](CCC(=O)N[C@@H](CS(=O)(=O)O)c1ccccc1)[C@H]1CC[C@H]2[C@@H]3CC[C@@H]4C[C@H](O)CC[C@]4(C)[C@H]3C[C@H](O)[C@]12C` [NC10035] are at most 6.70, 6.00 to 6.30, under 20% and 50 to 100%.
For `CC(C)[C@@H](CS(=O)(=O)O)NC(=O)CC[C@@H](C)[C@H]1CC[C@H]2[C@@H]3CC[C@@H]4C[C@H](O)CC[C@]4(C)[C@H]3CC[C@]12C` [NC10067] the same measures were at most 6.70, 5.70 to 6.00, under 20% and under 20%.
